Measurements reported in ChEMBL document CHEMBL1649174, “Human immunodeficiency virus type 1 isolates with the reverse transcriptase (RT) mutation Q145M retain nucleoside and nonnucleoside RT inhibitor susceptibility” (2009).

Assays:
Type in all cases: functional
[1] = tested on: Human immunodeficiency virus 1; experiment: Antiviral activity against Human immunodeficiency virus 1 clone pNL4-3-Q145M harboring K102Q, Q145M, S162C, K277R, I293V mutation in reverse transcriptase by phenosense assay relative to wild type
[2] = tested on: Human immunodeficiency virus 1; experiment: Antiviral activity against Human immunodeficiency virus 1 clone 38086 harboring K49R, V60I, I135V, Q145M, Q174H, G196E, Q207E, R211K, V245K mutation in reverse transcriptase by phenosense assay relative to wild type
[3] = tested on: Human immunodeficiency virus 1; experiment: Antiviral activity against Human immunodeficiency virus 1 clone Q9016 harboring K122E, Q145M, I202V, F214L mutation in reverse transcriptase by phenosense assay relative to wild type
[4] = tested on: Human immunodeficiency virus 1; experiment: Antiviral activity against Human immunodeficiency virus 1 clone 14682 harboring 122E, 135V, Q145V, 200A mutation in reverse transcriptase by phenosense assay relative to wild type

SMILES | fold change (FC) [1] | fold change (FC) [2] | fold change (FC) [3] | fold change (FC) [4]
C[C@H](Cn1cnc2c(N)ncnc21)OCP(=O)(O)O [TENOFOVIR ANHYDROUS] | 0.9 | 0.9 | 1.5 | 0.9
O=C1Nc2ccc(Cl)cc2[C@@](C#CC2CC2)(C(F)(F)F)O1 [EFAVIRENZ] | 0.9 | 1 | 1.2 | 1.3
Nc1nc(NC2CC2)c2ncn([C@H]3C=C[C@@H](CO)C3)c2n1 [ABACAVIR] | 1.1 | 0.9 | 1.2 | 1.1
Cc1ccnc2c1NC(=O)c1cccnc1N2C1CC1 [NEVIRAPINE] | 1.3 | 1.1 | 0.7 | 0.5
Cc1cn([C@H]2C[C@H](N=[N+]=[N-])[C@@H](CO)O2)c(=O)[nH]c1=O [ZIDOVUDINE] | 0.7 | 0.9 | 1.1 | 0.8
CC(C)Nc1cccnc1N1CCN(C(=O)c2cc3cc(NS(C)(=O)=O)ccc3[nH]2)CC1 [DELAVIRDINE] | 0.6 | 0.4 | 0.7 | 0.9
O=c1[nH]cnc2c1ncn2[C@H]1CC[C@@H](CO)O1 [DIDANOSINE] | 1.1 | 1.5 | 0.9 | 1
Nc1nc(=O)n([C@@H]2CS[C@H](CO)O2)cc1F [EMTRICITABINE] | 0.9 | 1.2 | 1.1 | 0.5
Cc1cn([C@H]2C=C[C@@H](CO)O2)c(=O)[nH]c1=O [STAVUDINE] | 0.9 | 1.1 | 1.1 | 0.9
